# Measured values reported in patent US12729388B2, “Methods and systems for producing cellulosic ethanol by biomass saccharification and fermentation” (ZHEJIANG HUAKANG PHARMACEUTICAL CO., LTD., priority 2021, dated 2026).
# Test system: cellulase Cellic CTec 2
# Experiment: Validation experiment of the inhibitory effect of glucose and ethanol on the enzymatic hydrolysis reaction
# Type: biochemical
# Conditions: Group C: 50 g/L ethanol externally added, corn cob waste 15% dry substrate, cellulase 4% of dry substrate, pH 5.0~6.0, 50° C., 300 rpm
# Protocol: Validation experiment of the inhibitory effect of glucose and ethanol on the enzymatic hydrolysis reaction. A reaction system was prepared using a citric acid buffer solution with a concentration of 0.1 mol/L. The citric acid buffer solution was added to a corn cob waste system in which a content of the biomass feedstock was 15% of a dry substrate, a pH of the mixture was maintained at 5.0~6.0, and cellulase […] a content of 4% of the dry substrate was added to the mixture to prepare three groups of 1 L reaction systems. [table] The three reaction systems were subjected to enzymatic hydrolysis at 50° C. for 72 hours under a condition of stirring at 300 rpm. Samples were taken from each reaction system every 12 hours to measure an amount of glucose released by the enzymatic hydrolysis, and results are shown in FIG. 3. FIG. 3 is a schematic diagram illustrating that glucose release concentration changes over time in an enzymatic hydrolysis system with external addition of glucose and ethanol according to some embodiments of the present disclosure.
compound,measurement,value
CCO [ethanol],"amount of glucose released during the 72-hour enzymatic hydrolysis, lower than that of the control Group A",8%
